Source: patent US4596805A, “Substituted dioxopyridopyrimidines” (Ortho Pharmaceutical Corporation, priority 1984, dated 1986)

Tests used:
[1] = test system: spontaneously hypertensive rats; assay: Spontaneously Hypertensive Rat Test (Test 3); type: in vivo; settings: 100 mg/kg body weight, four male spontaneously hypertensive rats, indirect tail-cuff method
Protocol: Alternatively, one may evaluate the calcium antagonist activity of a test compound by measuring the displacement of nitrendipine to calcium channel antagonist receptors by the test compound according to the methods of Bolger, et al., Biochem. Biophys. Res. Comm., 104(4), 1604-1609 (1982) and Ehlert, et al., Life Sciences, 30, 2191-2202 (1982). In such a test, the amount of specifically-bound nitrendipine to rabbit heart is determined in the presence and absence of test compound. The percent nitrendipine displacement is directly related to the efficacy of the test compound as a calcium antagonist. This assay is described below as the "Nitrendipine Binding Assay". […] Circ. J., 270, 282 (1963). The general techniques for conducting such tests are disclosed in B. Vagnovsky "Automatic Blood-Pressure Measurements in Small Animals", American Laboratory, April, 1973, and "Techniques for the Measurement of Blood Pressure", Institute of Laboratory Animal Resouces NEWS, Vol. XIX (3), G 11-12, Spring, 1976. In this test a group of four male spontaneously hypertensive rats having systolic blood pressures greater than 150 mm Hg are used for each test compound. Systolic blood pressure is measured by the indirect method using a tail-cuff. The compounds are administered at a dose of 100 mg/kg body weight, and the average of the peak decrease in blood pressure is calculated for the four rats. Test results for exemplary compounds of Formula I are provided in Table I below, in which the Rabbit Potassium Depolarized Blood Vessel Test is called "Test 2", the Nitrendipine Binding Assay is called "Test 1" and the Spontaneously Hypertensive Rat test is called "Test 3".

[2] = molecular target: calcium channel antagonist receptors (rabbit heart) (Oryctolagus cuniculus, UniProt P15381); assay: Nitrendipine Binding Assay (Test 1); set-up: species or system rabbit (female New Zealand white); settings: 3H-nitrendipine (0.05-0.50 nM), rabbit heart membrane, 90 min at 4° C., pH 7.4; read-out: Test 1 (IC50): concentration required to achieve 50% displacement of specifically-bound nitrendipine
[3] = test system: vascular smooth muscle tissue from the rabbit aorta; assay: Rabbit Potassium Depolarized Blood Vessel Test (Test 2); type: cell-based; settings: Oryctolagus cuniculus, 10 min; test compound 10^-6 M, 10 minute exposure, 30 mM potassium chloride, rabbit aorta strips, 37° C.; read-out: Test 2 (% Inhibition) of potassium-induced contraction
Excerpt: This tissue can be made to contract when exposed to a depolarizing solution containing an elevated potassium ion concentration and normal amounts of calcium ions. A test compound added to the solution produces a dose-dependent relaxation of the contracted rabbit aortic tissue which gives an indication of calcium antagonist activity of the test compound. This test is described below as the "Rabbit Potassium Depolarized Blood Vessel Test".
In the Rabbit Potassium Depolarized Blood Vessel Test, rabbits are killed by cervical dislocation, and the thoracic aorta is removed. Helical strips, approximately 30-40 mm in length, are cut from the aorta and are suspended in tissue baths of oxygenated Krebs bicarbonate buffer at 37° C. under a resting tension of 4 g. After an equilibration period of approximately 1-2 hours, the strips are challenged with a 30 mM potassium chloride solution and the peak contraction is measured. Following measurement of the peak contraction, the strips are washed and re-equilibrated for an hour in oxygenated Krebs bicarbonate buffer. After the re-equilibration of the aorta strips, the test compound was added to the bath at a concentration of 10-^6 M and the strips were allowed to stand for 10 minutes. After the 10 minute exposure to the test compound, the tissue strips were rechallenged with 30 mM potassium chloride solution and the maximum contraction was measured. The specificity of any inhibition of contraction is determined by addition of 10 mM phenylephrine.
The percent inhibition of contraction is calculated from the formula: […]
where CT is the peak contraction in the presence of the test compound and Cc is the peak contraction without test compound.
Test results for exemplary compounds of Formula I are provided in Table I below, in which the Rabbit Potassium Depolarized Blood Vessel Test is called "Test 2", the Nitrendipine Binding Assay is called "Test 1" and the Spontaneously Hypertensive Rat test is called "Test 3".

calcium channel antagonist receptors (rabbit heart), sequence (P15381 whole entry, other chains not shown): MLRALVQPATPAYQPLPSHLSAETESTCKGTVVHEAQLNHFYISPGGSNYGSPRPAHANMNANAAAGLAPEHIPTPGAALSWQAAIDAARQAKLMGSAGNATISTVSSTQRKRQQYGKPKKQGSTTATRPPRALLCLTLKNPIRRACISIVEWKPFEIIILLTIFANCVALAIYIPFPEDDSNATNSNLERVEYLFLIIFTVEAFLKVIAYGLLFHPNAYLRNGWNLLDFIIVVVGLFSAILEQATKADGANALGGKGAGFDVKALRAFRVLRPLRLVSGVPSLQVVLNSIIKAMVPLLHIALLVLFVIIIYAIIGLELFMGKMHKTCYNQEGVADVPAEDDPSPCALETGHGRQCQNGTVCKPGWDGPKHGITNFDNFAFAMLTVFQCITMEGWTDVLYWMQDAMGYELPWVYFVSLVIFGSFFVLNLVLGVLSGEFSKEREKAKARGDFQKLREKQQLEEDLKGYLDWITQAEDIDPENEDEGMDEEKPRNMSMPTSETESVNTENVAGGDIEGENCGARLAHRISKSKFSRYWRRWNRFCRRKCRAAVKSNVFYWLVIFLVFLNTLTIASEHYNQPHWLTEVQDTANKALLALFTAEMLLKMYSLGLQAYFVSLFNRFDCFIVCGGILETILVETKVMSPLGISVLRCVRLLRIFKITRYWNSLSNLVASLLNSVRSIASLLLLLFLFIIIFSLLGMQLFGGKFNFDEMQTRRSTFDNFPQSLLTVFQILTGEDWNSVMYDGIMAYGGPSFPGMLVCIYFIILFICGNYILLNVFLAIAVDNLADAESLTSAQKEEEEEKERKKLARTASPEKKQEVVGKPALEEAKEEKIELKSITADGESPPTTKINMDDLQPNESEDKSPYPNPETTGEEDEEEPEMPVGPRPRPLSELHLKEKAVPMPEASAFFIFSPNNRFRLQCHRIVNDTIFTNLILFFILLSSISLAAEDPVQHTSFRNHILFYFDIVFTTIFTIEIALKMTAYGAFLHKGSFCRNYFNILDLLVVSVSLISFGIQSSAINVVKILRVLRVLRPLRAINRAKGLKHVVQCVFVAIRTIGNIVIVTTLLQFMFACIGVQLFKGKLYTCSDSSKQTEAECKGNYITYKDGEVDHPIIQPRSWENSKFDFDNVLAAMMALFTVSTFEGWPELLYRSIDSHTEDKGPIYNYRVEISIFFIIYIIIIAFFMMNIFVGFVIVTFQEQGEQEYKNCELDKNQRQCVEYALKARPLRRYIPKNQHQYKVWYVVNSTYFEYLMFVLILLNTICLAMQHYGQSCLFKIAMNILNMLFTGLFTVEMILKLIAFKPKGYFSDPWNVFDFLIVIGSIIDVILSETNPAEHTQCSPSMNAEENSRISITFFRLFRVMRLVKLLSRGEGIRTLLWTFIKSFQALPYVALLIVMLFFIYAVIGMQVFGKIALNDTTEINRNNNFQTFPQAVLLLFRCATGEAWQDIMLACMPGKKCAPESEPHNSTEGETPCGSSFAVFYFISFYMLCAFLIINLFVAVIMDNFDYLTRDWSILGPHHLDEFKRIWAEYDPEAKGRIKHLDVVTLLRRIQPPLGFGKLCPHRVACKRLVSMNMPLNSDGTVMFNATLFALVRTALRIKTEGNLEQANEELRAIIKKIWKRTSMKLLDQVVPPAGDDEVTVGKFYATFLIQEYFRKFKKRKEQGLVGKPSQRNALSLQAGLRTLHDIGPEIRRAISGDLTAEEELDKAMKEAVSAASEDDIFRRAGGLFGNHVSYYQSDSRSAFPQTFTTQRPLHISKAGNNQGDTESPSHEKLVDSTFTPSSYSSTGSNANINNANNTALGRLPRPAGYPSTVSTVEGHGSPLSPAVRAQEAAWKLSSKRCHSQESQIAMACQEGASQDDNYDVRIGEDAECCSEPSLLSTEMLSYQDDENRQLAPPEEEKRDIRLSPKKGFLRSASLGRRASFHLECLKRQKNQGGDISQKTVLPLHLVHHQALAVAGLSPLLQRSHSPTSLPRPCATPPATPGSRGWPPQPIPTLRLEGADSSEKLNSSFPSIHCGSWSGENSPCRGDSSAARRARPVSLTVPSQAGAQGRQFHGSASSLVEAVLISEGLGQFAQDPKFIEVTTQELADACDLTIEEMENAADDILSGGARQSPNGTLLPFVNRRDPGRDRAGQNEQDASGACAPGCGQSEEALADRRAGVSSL
calcium channel antagonist receptors (rabbit heart), sequence (P13806 27-960 partner limits assumed, other chains not shown): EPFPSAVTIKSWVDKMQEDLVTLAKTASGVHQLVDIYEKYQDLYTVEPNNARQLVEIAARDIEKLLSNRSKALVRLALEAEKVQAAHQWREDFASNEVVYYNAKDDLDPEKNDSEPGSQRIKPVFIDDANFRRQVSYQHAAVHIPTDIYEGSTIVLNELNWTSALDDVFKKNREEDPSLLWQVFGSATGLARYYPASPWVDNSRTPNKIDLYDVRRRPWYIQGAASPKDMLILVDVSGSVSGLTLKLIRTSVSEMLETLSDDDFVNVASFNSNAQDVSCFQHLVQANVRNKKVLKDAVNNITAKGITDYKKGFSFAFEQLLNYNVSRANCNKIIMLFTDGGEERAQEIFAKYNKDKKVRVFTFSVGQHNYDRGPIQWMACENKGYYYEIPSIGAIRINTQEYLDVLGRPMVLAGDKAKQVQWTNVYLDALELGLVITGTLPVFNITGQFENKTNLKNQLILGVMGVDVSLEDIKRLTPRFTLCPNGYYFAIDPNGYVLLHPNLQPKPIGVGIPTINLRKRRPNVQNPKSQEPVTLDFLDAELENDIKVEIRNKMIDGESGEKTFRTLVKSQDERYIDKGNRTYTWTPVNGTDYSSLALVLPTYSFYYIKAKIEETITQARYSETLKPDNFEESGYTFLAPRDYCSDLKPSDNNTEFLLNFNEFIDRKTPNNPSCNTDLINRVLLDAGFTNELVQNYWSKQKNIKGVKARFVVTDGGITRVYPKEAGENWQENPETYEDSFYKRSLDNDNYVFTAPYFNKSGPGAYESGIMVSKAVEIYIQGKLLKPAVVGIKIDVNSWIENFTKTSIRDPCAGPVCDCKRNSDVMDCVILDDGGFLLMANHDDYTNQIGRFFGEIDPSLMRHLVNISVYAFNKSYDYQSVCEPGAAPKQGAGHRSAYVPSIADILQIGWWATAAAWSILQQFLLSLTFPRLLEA
calcium channel antagonist receptors (rabbit heart), sequence (P13806 961-1106 partner limits assumed, other chains not shown): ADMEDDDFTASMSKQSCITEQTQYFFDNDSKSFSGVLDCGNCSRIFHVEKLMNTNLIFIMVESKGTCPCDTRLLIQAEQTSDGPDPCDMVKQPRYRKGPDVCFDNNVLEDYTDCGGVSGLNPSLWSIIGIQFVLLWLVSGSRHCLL

Compound: COC(=O)C1=C(C)Nc2c(c(=O)n(C)c(=O)n2C)C1c1ccco1 (stereo not shown) [Example XV]
- Test 3 (mmHg, 100 mpk): average of the peak decrease in systolic blood pressure [1]: -22 mmHg
- IC50 [2]: 100 µM

Compound: CC1=C(C(=O)OCCN(C)Cc2ccccc2)C(c2ccccc2[N+](=O)[O-])c2c(n(C)c(=O)n(C)c2=O)N1 (stereo not shown) [XII]
- inhibition at 1 µM [3]: 27%
- Test 3 (mmHg, 100 mpk): average of the peak decrease in systolic blood pressure [1]: -16 mmHg
- IC50 [2]: 2.5 µM

Compound: CC1=C(C(=O)OCCN(C)Cc2ccccc2)C(c2cccc([N+](=O)[O-])c2)c2c([nH]c(=O)[nH]c2=O)N1 (stereo not shown) [XXII]
- Test 3 (mmHg, 100 mpk): average of the peak decrease in systolic blood pressure [1]: -11 mmHg
- IC50 [2]: 7.7 µM

Compound: CC1=C(C(=O)OCCBr)C(c2ccccc2Cl)c2c(n(C)c(=O)n(C)c2=O)N1 (stereo not shown) [XXVIII]
- inhibition at 1 µM [3]: 23%
- IC50 [2]: 0.175 µM

Compound: CC1=C(C(=O)OCCN(C)Cc2ccccc2)C(c2cccc(F)c2)c2c(n(C)c(=O)n(C)c2=O)N1 (stereo not shown) [VIII]
- inhibition at 1 µM [3]: 48%
- Test 3 (mmHg, 100 mpk): average of the peak decrease in systolic blood pressure [1]: -47 mmHg
- IC50 [2]: 0.5 µM

Compound: CC1=C(C(=O)OCCN(C)Cc2ccccc2)C(c2cccc(C(F)(F)F)c2)c2c(n(C)c(=O)n(C)c2=O)N1 (stereo not shown) [XVIII]
- inhibition at 1 µM [3]: 33%
- Test 3 (mmHg, 100 mpk): average of the peak decrease in systolic blood pressure [1]: -37 mmHg
- IC50 [2]: 3.4 µM

Compound: CC1=C(C(=O)OCCN(C)Cc2ccccc2)C(c2ccccc2[N+](=O)[O-])c2c(n(C)c(=O)n(C)c2=O)N1 (stereo not shown) [XIII]
- Test 3 (mmHg, 100 mpk): average of the peak decrease in systolic blood pressure [1]: -35 mmHg

Compound: CC1=C(C(=O)OCCN(C)Cc2ccccc2)C(c2cccc([N+](=O)[O-])c2)c2c(n(C)c(=O)n(C)c2=O)N1 (stereo not shown) [IV]
- inhibition at 1 µM [3]: 44%
- Test 3 (mmHg, 100 mpk): average of the peak decrease in systolic blood pressure [1]: -28 mmHg
- IC50 [2]: 0.23 µM

Compound: CC1=C(C(=O)OCCN(C)Cc2ccccc2)C(C2CCCCC2)c2c(n(C)c(=O)n(C)c2=O)N1 (stereo not shown) [XVII]
- inhibition at 1 µM [3]: 18%
- Test 3 (mmHg, 100 mpk): average of the peak decrease in systolic blood pressure [1]: -30 mmHg
- IC50 [2]: 2 µM

Compound: CC1=C(C(=O)OCCN(C)Cc2ccccc2)C(c2ccco2)c2c(n(C)c(=O)n(C)c2=O)N1 (single isomer, unassigned) [Example XVI, 2-(N-benzyl-N-methylamino)ethyl-5-(furan-2-yl)-5,8-dihydro-1,3,7-trimethyl-2,4-dioxopyrido [2,3-d]pyrimidine-6-carboxylate]
- IC50 [2]: 2 µM

Compound: CC1=C(C(=O)OCCN(C)Cc2ccccc2)C(c2cccc(Cl)c2)c2c(n(C)c(=O)n(C)c2=O)N1 (stereo not shown) [VI, 2-(N-benzyl-N-methylaminoethyl) 5-(3-chlorophenyl)-5,8-dihydro-1,3,7-trimethyl-2,4-dioxopyrido[2,3-d]pyrimidine-6-carboxylate]
- inhibition at 1 µM [3]: 52%
- Test 3 (mmHg, 100 mpk): average of the peak decrease in systolic blood pressure [1]: -50 mmHg
- IC50 [2]: 0.1 µM

Compound: CC1=C(C(=O)OCCN(C)Cc2ccccc2)C(c2cc(Cl)cc(Cl)c2)c2c(n(C)c(=O)n(C)c2=O)N1 (stereo not shown) [XIX]
- inhibition at 1 µM [3]: 28%
- Test 3 (mmHg, 100 mpk): average of the peak decrease in systolic blood pressure [1]: -37 mmHg
- IC50 [2]: 2.3 µM

Compound: COC(=O)C1=C(C)Nc2c(c(=O)n(C)c(=O)n2C)C1c1cccc([N+](=O)[O-])c1 (stereo not shown) [Example I, Methyl 5,8-Dihydro-1,3,7-trimethyl-5-(3-nitrophenyl)-2,4-dioxopyrido[2,3-d]pyrimidine-6-carboxylate]
- inhibition at 1 µM [3]: 54%
- Test 3 (mmHg, 100 mpk): average of the peak decrease in systolic blood pressure [1]: -11 mmHg
- IC50 [2]: 0.3 µM

Compound: CC1=C(C(=O)OCCN(C)Cc2ccccc2)C(c2ccc(C(F)(F)F)cc2)c2c(n(C)c(=O)n(C)c2=O)N1 (stereo not shown) [XXI]
- inhibition at 1 µM [3]: 6%
- Test 3 (mmHg, 100 mpk): average of the peak decrease in systolic blood pressure [1]: -16 mmHg
- IC50 [2]: 2.3 µM

Compound: CC1=C(C(=O)OCCF)C(c2cccc(Cl)c2)c2c(n(C)c(=O)n(C)c2=O)N1 (stereo not shown) [XXVI]
- IC50 [2]: 0.89 µM

Compound: CC1=C(C(=O)OCCN(C)Cc2ccccc2)C(c2ccccc2)c2c(n(C)c(=O)n(C)c2=O)N1 (stereo not shown) [XI]
- inhibition at 1 µM [3]: 12%
- Test 3 (mmHg, 100 mpk): average of the peak decrease in systolic blood pressure [1]: -28 mmHg
- IC50 [2]: 1.3 µM

Compound: CC1=C(C(=O)OCCBr)C(c2cccc(Cl)c2)c2c(n(C)c(=O)n(C)c2=O)N1 (stereo not shown) [XXIII]
- inhibition at 1 µM [3]: 54%
- Test 3 (mmHg, 100 mpk): average of the peak decrease in systolic blood pressure [1]: -16 mmHg
- IC50 [2]: 0.078 µM

Compound: CC1=C(C(=O)OCCN(C)Cc2ccccc2)C(c2ccccc2Cl)c2c(n(C)c(=O)n(C)c2=O)N1 (stereo not shown) [XIV]
- inhibition at 1 µM [3]: 50%
- Test 3 (mmHg, 100 mpk): average of the peak decrease in systolic blood pressure [1]: -40 mmHg
- IC50 [2]: 1 µM

Compound: CC1=C(C(=O)OCCBr)C(c2cccc([N+](=O)[O-])c2)c2c(n(C)c(=O)n(C)c2=O)N1 (stereo not shown) [XXIV]
- inhibition at 1 µM [3]: 26%
- Test 3 (mmHg, 100 mpk): average of the peak decrease in systolic blood pressure [1]: -10 mmHg
- IC50 [2]: 0.109 µM

Compound: CC1=C(C(=O)OCCN(C)Cc2ccccc2)C(c2ccco2)c2c(n(C)c(=O)n(C)c2=O)N1.Cl.O (single isomer, unassigned) [Example III, 2-(N-Benzyl-N-methylamino)ethyl 5-(Furan-2-yl)-5,8-dihydro-1,3,7-trimethyl-2,4-dioxopyrido[2,3-d]pyrimidine-6-carboxylate Monohydrochloride Monohydrate]
- Test 3 (mmHg, 100 mpk): average of the peak decrease in systolic blood pressure [1]: -22 mmHg
- IC50 [2]: 6 µM

Compound: CC1=C(C(=O)OCCN(C)Cc2ccccc2)C(c2cccc(Cl)c2)c2c([nH]c(=S)[nH]c2=O)N1 (stereo not shown) [XX]
- Test 3 (mmHg, 100 mpk): average of the peak decrease in systolic blood pressure [1]: -16 mmHg
- IC50 [2]: > 1 µM

Compound: CC1=C(C(=O)OCCN(C)Cc2ccccc2)C(c2cccc(C#N)c2)c2c(n(C)c(=O)n(C)c2=O)N1 (stereo not shown) [V]
- inhibition at 1 µM [3]: 26%
- Test 3 (mmHg, 100 mpk): average of the peak decrease in systolic blood pressure [1]: -31 mmHg
- IC50 [2]: 0.65 µM

Compound: COc1cccc(C2C(C(=O)OCCN(C)Cc3ccccc3)=C(C)Nc3c2c(=O)n(C)c(=O)n3C)c1 (stereo not shown) [IX]
- inhibition at 1 µM [3]: 8%
- Test 3 (mmHg, 100 mpk): average of the peak decrease in systolic blood pressure [1]: -57 mmHg
- IC50 [2]: 2.8 µM

Compound: CC1=C(C(=O)OCCBr)C(c2cccc(C(F)(F)F)c2)c2c(n(C)c(=O)n(C)c2=O)N1 (stereo not shown) [XXV]
- inhibition at 1 µM [3]: 41%
- IC50 [2]: 1.1 µM

Compound: CC1=C(C(=O)OCCCBr)C(c2cccc(Cl)c2)c2c(n(C)c(=O)n(C)c2=O)N1 (stereo not shown) [XXIX]
- inhibition at 1 µM [3]: 44%
- IC50 [2]: 0.385 µM

Compound: CC1=C(C(=O)OCCN(C)Cc2ccccc2)C(c2cccc(C)c2)c2c(n(C)c(=O)n(C)c2=O)N1 (stereo not shown) [Example X]
- inhibition at 1 µM [3]: 16%
- Test 3 (mmHg, 100 mpk): average of the peak decrease in systolic blood pressure [1]: -12 mmHg
- IC50 [2]: 3.2 µM

Compound: CC1=C(C(=O)OCCN(C)Cc2ccccc2)C(c2cccc(Cl)c2)c2c([nH]c(=O)[nH]c2=O)N1 (stereo not shown) [VII]
- IC50 [2]: 8 µM

Compound: COC(=O)C1=C(C)Nc2c(c(=O)n(C)c(=O)n2C)C1c1cccc(Cl)c1 (stereo not shown) [Example II, Methyl 5-(3-Chlorophenyl)-5,8-dihydro-1,3,7-trimethyl-2,4-dioxopyrido[2,3-d]pyrimidine-6-carboxylate]
- inhibition at 1 µM [3]: 3%
- Test 3 (mmHg, 100 mpk): average of the peak decrease in systolic blood pressure [1]: -31 mmHg
- IC50 [2]: 1 µM

Compound: CC1=C(C(=O)OCC(F)(F)F)C(c2cccc(Cl)c2)c2c(n(C)c(=O)n(C)c2=O)N1 (stereo not shown) [XXVII]
- IC50 [2]: 0.86 µM
